The record followed here is patent publication US10300060B2, “Trk-inhibiting compound” (ONO PHARMACEUTICAL CO., LTD., priority 2013, dated 2019).

For one test, the target named is b-Raf (Homo sapiens (Human), UniProt P15056). The experiment in a line: Enzyme-inhibiting activity test of kinases other than Trk (selectivity experiment): b-Raf. Conditions: concentration of 3 μM; read-out: Inhibition rate (%) b-Raf. Format: biochemical. As for the experimental part: (§1) A test substance (the present compound) was dissolved in dimethylsulfoxide to prepare a 100-fold concentration of the test concentration, 3 μM. The solution was further diluted to 25-fold with an assay buffer (20 mM HEPES, 0.01% Triton X-100, 2 mM DTT, pH 7.5) to obtain a test substance solution. In a similar manner a positive control substance solution was prepared with a positive control substance.
b-Raf, sequence (P15056 whole entry, species assumed): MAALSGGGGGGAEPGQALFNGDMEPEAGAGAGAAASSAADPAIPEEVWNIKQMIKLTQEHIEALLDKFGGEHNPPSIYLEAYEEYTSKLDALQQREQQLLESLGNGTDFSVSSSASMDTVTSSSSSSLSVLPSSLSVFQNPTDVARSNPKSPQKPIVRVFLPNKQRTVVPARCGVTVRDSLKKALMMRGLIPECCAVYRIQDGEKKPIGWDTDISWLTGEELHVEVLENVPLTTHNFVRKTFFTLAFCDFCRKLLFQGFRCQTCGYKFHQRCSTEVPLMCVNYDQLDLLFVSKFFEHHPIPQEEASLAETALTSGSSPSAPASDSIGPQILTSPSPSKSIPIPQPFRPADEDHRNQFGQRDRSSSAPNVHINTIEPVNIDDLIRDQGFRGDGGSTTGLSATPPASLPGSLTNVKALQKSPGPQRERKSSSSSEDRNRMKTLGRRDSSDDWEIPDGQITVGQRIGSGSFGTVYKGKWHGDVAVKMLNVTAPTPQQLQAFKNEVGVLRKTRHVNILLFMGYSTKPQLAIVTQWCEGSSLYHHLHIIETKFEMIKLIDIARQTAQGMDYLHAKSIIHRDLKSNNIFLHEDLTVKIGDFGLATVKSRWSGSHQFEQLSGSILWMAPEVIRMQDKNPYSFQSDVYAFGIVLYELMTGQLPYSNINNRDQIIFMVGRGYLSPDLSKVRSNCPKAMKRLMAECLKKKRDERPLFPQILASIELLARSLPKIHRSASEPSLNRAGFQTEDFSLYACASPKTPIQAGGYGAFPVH
(§2) A 4-times concentration solution (5 μL) of the test substance prepared with the assay buffer, 5 μL of a 4-times concentration solution of substrate/ATP/metal (Mg) and 10 μL of a 2-times concentration solution of kinase were mixed in a well of a polypropylene 384-well plate and allowed to react at room temperature for 1 hour. The reaction was terminated by adding 60 μL of a Termination Buffer (QuickScout Screening Assist MSA; Carna Biosciences). The substrate peptide and the phosphorylated peptide in the reaction solution were separated and quantified. The kinase reaction was assessed from the product ratio (P/(P+S)) calculated from the height (S) of the peak of the substrate peptide and the height (P) of the peak of the phosphorylated peptide. Other kinases used in the kinase selectivity experiments were, for example, b-Raf and KDR. The following Table 3 indicates substrates, substrate concentrations, ATP concentrations and positive control substances used in respective kinase enzyme inhibition activity tests.

The target of the next test is KDR (Homo sapiens (Human), UniProt P35968). The experiment in a line: Enzyme-inhibiting activity test of kinases other than Trk (selectivity experiment): KDR. Conditions: concentration of 3 μM; read-out: Inhibition rate (%) KDR. The class given is biochemical. On the procedure: as §1, §2
KDR, sequence (P35968 20-1356, species assumed): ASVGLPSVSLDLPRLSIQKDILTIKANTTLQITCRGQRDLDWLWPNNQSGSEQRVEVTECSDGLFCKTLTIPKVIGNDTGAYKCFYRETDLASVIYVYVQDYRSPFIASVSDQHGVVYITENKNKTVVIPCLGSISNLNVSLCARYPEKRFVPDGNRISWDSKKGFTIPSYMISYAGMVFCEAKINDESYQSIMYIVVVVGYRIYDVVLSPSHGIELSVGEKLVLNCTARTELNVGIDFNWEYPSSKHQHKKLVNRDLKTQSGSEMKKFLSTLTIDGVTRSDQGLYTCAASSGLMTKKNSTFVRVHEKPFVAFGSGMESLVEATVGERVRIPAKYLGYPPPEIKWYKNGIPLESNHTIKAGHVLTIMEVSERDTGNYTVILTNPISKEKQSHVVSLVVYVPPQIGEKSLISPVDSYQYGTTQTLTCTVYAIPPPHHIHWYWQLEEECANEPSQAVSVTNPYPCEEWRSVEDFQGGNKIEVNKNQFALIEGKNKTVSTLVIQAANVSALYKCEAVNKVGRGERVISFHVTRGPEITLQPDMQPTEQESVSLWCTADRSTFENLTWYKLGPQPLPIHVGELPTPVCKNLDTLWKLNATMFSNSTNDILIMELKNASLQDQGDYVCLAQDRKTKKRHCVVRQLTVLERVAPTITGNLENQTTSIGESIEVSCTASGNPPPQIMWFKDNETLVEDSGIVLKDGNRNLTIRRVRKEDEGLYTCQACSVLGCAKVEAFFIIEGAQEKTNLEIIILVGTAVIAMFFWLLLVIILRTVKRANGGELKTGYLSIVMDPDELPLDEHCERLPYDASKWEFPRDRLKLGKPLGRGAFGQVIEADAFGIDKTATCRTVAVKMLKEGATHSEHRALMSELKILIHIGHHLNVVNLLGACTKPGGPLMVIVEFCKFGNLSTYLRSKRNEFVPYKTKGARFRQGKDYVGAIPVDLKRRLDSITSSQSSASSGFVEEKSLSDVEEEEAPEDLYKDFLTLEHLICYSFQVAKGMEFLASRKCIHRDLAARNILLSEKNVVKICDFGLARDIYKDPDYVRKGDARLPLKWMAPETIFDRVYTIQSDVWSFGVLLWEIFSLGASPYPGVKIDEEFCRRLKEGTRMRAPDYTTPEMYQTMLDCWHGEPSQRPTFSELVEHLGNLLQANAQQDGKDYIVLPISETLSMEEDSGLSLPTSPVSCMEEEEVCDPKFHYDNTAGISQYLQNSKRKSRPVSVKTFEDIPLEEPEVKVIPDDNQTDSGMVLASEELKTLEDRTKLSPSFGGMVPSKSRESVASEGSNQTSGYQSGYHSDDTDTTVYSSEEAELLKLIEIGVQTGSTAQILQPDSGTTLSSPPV
Test [1] has as its system sodium monoiodoacetate-induced model rats. The experiment in a line: Analgesic effect on sodium monoiodoacetate-induced model rats. Format: in vivo, rat. Conditions: MIA-induced model rats, test substance orally twice a day day 14 to 23, day 24 3 hours before measurement, right hind limb weight load ratio.
[2] abbreviates: experiment with morphine as positive control.

What is called inhibition is the percentage by which the read-out fell short of the control. Take `Nc1ncc(Cl)cc1-c1ccc(Oc2ncc(NC(=O)Nc3cc(C(F)(F)F)ccc3-n3cc(Cl)cn3)cn2)cc1` [Example 15-63, 1-{2-[4-(2-amino-5-chloro-3-pyridinyl)phenoxy]-5-pyrimidinyl}-3-[2-(4-chloro-1H-pyrazol-1-yl)-5-(trifluoromethyl)phenyl]urea]: the inhibition at 3 µM at b-Raf was 43%; at KDR, 0%. For the same molecule, the “Percent improvement (%)” value in test [1] (setting [2]) was 53%.
The corresponding values for `CN(C)c1ccn2ncc(-c3ccc(Oc4ncc(NC(=O)Nc5cc(C(F)(F)F)ccc5-c5ccnn5C)cn4)cc3)c2n1` [Example 21-51, 1-(2-{4-[5-(dimethylamino)pyrazolo[1,5-a]pyrimidin-3-yl]phenoxyl}-5-pyrimidinyl)-3-[2-(1-methyl-1H-pyrazol-5-yl)-5-(trifluoromethyl)phenyl]urea] are 49%, 9% and 68%.
The corresponding values for `Nc1ncc(C(F)(F)F)cc1-c1ccc(Oc2ncc(NC(=O)Nc3cc(C(F)(F)F)ccc3-n3cc(Cl)cn3)cn2)cc1` [Example 15-87, 1-(2-{4-[2-amino-5-(trifluoromethyl)-3-pyridinyl]phenoxyl}-5-pyrimidinyl)-3-[2-(4-chloro-1H-pyrazol-1-yl)-5-(trifluoromethyl)phenyl]urea] are 34%, 0% and 57%.
In the case of `Nc1ncc(Cl)cc1-c1ccc(Oc2ncc(NC(=O)Nc3ccc(C(F)(F)F)cc3Cl)cn2)cc1` [Example 15-6, 1-(2-(4-(2-amino-5-chloropyridin-3-yl)phenoxy)pyrimidin-5-yl)-3-(2-chloro-4-(trifluoromethyl)phenyl)urea], the inhibition at 3 µM at b-Raf turned out to be 37%; on KDR, 0%. The “Percent improvement (%)” value in test [1] (experiment with tramadol as positive control) was determined as 51%.
As for `CS(=O)(=O)c1ccc(C(F)(F)F)cc1NC(=O)Nc1cnc(Oc2ccc(-c3cc(Cl)cnc3N)cc2)nc1` [Example 15-104, 1-{2-[4-(2-amino-5-chloro-3-pyridinyl)phenoxy]-5-pyrimidinyl}-3-[2-(methylsulfonyl)-5-(trifluoromethyl)phenyl]urea], the inhibition at 3 µM on b-Raf worked out at 53%; on KDR, 18%. For the same molecule, the “Percent improvement (%)” value in test [1] (setting [2]) is 54%.
The corresponding values for `Nc1ncc(F)cc1-c1ccc(Oc2ncc(NC(=O)Nc3cc(C(F)(F)F)ccc3-c3cccnc3)cn2)cc1` [Example 14-6, 1-(2-(4-(2-amino-5-fluoropyridin-3-yl)phenoxy)pyrimidin-5-yl)-3-(2-(pyridin-3-yl)-5-(trifluoromethyl)phenyl)urea] are 45%, 1.7% and 53%.
The like results for `CS(=O)(=O)c1ccc(C(F)(F)F)cc1NC(=O)Nc1cnc(Oc2ccc(-c3cc(C(F)(F)F)cnc3N)cc2)nc1` [Example 15-98, 1-(2-{4-[2-amino-5-(trifluoromethyl)-3-pyridinyl]phenoxyl}-5-pyrimidinyl)-3-[2-(methylsulfonyl)-5-(trifluoromethyl)phenyl]urea] were, in that order, 23%, 8% and 57%.
The like results for `Nc1ncc(C(F)(F)F)cc1-c1ccc(Oc2ncc(NC(=O)Nc3cc(C(F)(F)F)ccc3-n3ccc(C(F)(F)F)n3)cn2)cc1` [Example 15-52, 1-(2-{4-[2-amino-5-(trifluoromethyl)-3-pyridinyl]phenoxyl}-5-pyrimidinyl)-3-{5-(trifluoromethyl)-2-[3-(trifluoromethyl)-1H-pyrazol-1-yl]phenyl}urea] were, in that order, 20%, 0% and 60%.
In the case of `Nc1ncc(Cl)cc1-c1ccc(Oc2ncc(NC(=O)Nc3cc(C(F)(F)F)ccc3-c3ccccc3)cn2)cc1` [Example 15-55, 1-{2-[4-(2-amino-5-chloro-3-pyridinyl)phenoxy]-5-pyrimidinyl}-3-[4-(trifluoromethyl)-2-biphenylyl]urea], the figures for the inhibition at 3 µM on b-Raf and on KDR were 30% and 0%, respectively. The “Percent improvement (%)” value in test [1] (setting [2]) was 62%.
The like results for `CN(C)c1ccn2ncc(-c3ccc(Oc4ncc(NC(=O)Nc5cc(C(F)(F)F)ccc5-c5ccccc5)cn4)cc3)c2n1` [Example 21-70, 1-(2-{4-[5-(dimethylamino)pyrazolo[1,5-a]pyrimidin-3-yl]phenoxyl}-5-pyrimidinyl)-3-[4-(trifluoromethyl)-2-biphenylyl]urea] were, in that order, 19%, 0% and 61%.
